Like-named read-outs stand apart in the source and are kept apart here.
Legend:
[1] = test system: smallflower umbrella sedge; experiment: Test C flooded paddy test; format: in vivo, Cyperus difformis; conditions: for pest or weed control at 62 g/ha / pest or weed control at 125 g/ha / pest or weed control at 250 g/ha / pest or weed control at 500 g/ha: Cyperus difformis; for pest or weed control at 500 g/ha / Plant response rating, Sedge, Umbrella: 500 g ai/ha, visual rating after 12 to 14 days; for pest or weed control at 500 g/ha: read-out: Plant response rating, Sedge, Umbrella
rice = experiment: Test C flooded paddy test; format: in vivo, Oryza sativa; conditions: for plant injury at 62 g/ha / plant injury at 125 g/ha / plant injury at 250 g/ha / plant injury at 500 g/ha: Oryza sativa; for plant injury at 500 g/ha / Plant response rating, Rice: 500 g ai/ha, visual rating after 12 to 14 days; for plant injury at 500 g/ha: read-out: Plant response rating, Rice
How it was run: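 Postemergence sprays applied to plants 2 to 18 cm tall (1- to 4-leaf stage); paddy species grown to 2-leaf stage under flooding. After 12 to 14 days in greenhouse, visual rating versus untreated controls on 0–100 scale (0 no effect, 100 complete control).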

ducksalad = experiment: Test C flooded paddy test; format: in vivo, Heteranthera limosa; conditions: for pest or weed control at 62 g/ha / pest or weed control at 125 g/ha / pest or weed control at 250 g/ha / pest or weed control at 500 g/ha: Heteranthera limosa; for pest or weed control at 500 g/ha / Plant response rating, Ducksalad: 500 g ai/ha, visual rating after 12 to 14 days; for pest or weed control at 500 g/ha: read-out: Plant response rating, Ducksalad
morningglory = experiment: Test A pre-/postemergence herbicide test; format: in vivo, Ipomoea spp.; conditions: Ipomoea, 240 h; for pest or weed control at 500 g/ha: 500 g ai/ha; for pest or weed control at 2000 g/ha: 2000 g ai/ha
How it was run: (§1)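 Both application timings were run together: directed soil spray over freshly planted seeds in sandy loam, and runoff spray onto 2–10 cm seedlings. Evaluation after ~10 days in greenhouse used a 0–100 visual scale versus untreated controls.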

barnyardgrass = experiment: Test A pre-/postemergence herbicide test; format: in vivo, Echinochloa crus-galli; conditions: Echinochloa crus-galli, 240 h; for pest or weed control at 500 g/ha: 500 g ai/ha; for pest or weed control at 2000 g/ha: 2000 g ai/ha
How it was run: as §1

[2] = 62 g ai/ha, scale 0 to 100 (0 no effect, 100 complete control), read-out: Sedge, Umbrella plant response rating
[3] = 125 g ai/ha, scale 0 to 100 (0 no effect, 100 complete control), read-out: Sedge, Umbrella plant response rating
[4] = 250 g ai/ha, scale of 0 to 100, 0 is no effect, 100 is complete control, read-out: Sedge, Umbrella plant response rating
[5] = scale 0 to 100 (0 no effect, 100 complete control)
[6] = 62 g ai/ha, scale 0 to 100 (0 no effect, 100 complete control), read-out: Rice plant response rating
[7] = 125 g ai/ha, scale 0 to 100 (0 no effect, 100 complete control), read-out: Rice plant response rating
[8] = 250 g ai/ha, scale of 0 to 100, 0 is no effect, 100 is complete control, read-out: Rice plant response rating
[9] = 62 g ai/ha, scale 0 to 100 (0 no effect, 100 complete control), read-out: Ducksalad plant response rating
[10] = 125 g ai/ha, scale 0 to 100 (0 no effect, 100 complete control), read-out: Ducksalad plant response rating
[11] = 250 g ai/ha, scale of 0 to 100, 0 is no effect, 100 is complete control, read-out: Ducksalad plant response rating
[12] = 125 g ai/ha, scale 0 to 100 (0 no effect, 100 complete control)
[13] = 250 g ai/ha, scale of 0 to 100, 0 is no effect, 100 is complete control
[14] = post-emergence, Postemergence, 0 to 100 scale, 0 no effect, 100 complete control, read-out: Morningglory plant response rating
[15] = post-emergence, Postemergence, 0 to 100 scale, 0 no effect, 100 complete control, read-out: Plant response rating, Morningglory
[16] = pre-emergence, Preemergence, visual rating, 0 to 100 scale (0 no effect, 100 complete control), read-out: Morningglory plant response rating
[17] = post-emergence, Postemergence, 0 to 100 scale, 0 no effect, 100 complete control, read-out: Barnyardgrass plant response rating
[18] = post-emergence, Postemergence, 0 to 100 scale, 0 no effect, 100 complete control, read-out: Plant response rating, Barnyardgrass
[19] = pre-emergence, Preemergence, visual rating, 0 to 100 scale (0 no effect, 100 complete control), read-out: Barnyardgrass plant response rating

SMILES | pest or weed control at 125 g/ha [1, 3] [%] | pest or weed control at 250 g/ha [1, 4] [%] | pest or weed control at 500 g/ha [1, 5] [%] | plant injury at 125 g/ha (rice; [7]) [%] | plant injury at 250 g/ha (rice; [8]) [%] | plant injury at 500 g/ha (rice; [5]) [%] | pest or weed control at 125 g/ha (ducksalad; [10]) [%] | pest or weed control at 250 g/ha (ducksalad; [11]) [%] | Sedge, Umbrella plant response rating ([1]; 62 g ai/ha, scale 0 to 100) | Sedge, Umbrella plant response rating [1, 12] | Sedge, Umbrella plant response rating [1, 13] | Plant response rating, Sedge, Umbrella [1, 5] | Rice plant response rating (rice; 62 g ai/ha, scale 0 to 100) | Rice plant response rating (rice; [12]) | Rice plant response rating (rice; [13]) | Plant response rating, Rice (rice; [5]) | Ducksalad plant response rating (ducksalad; 62 g ai/ha, scale 0 to 100) | Ducksalad plant response rating (ducksalad; [12]) | Ducksalad plant response rating (ducksalad; [13]) | Plant response rating, Ducksalad (ducksalad; [5]) | also measured
CCn1nc(C(C)(C)C)cc1C(=O)Nc1ccc(F)c(C(=O)N(C)C)c1 [Compound 236, N-[3-[(dimethylamino)carbonyl]-4-fluorophenyl]-3-(1,1-dimethylethyl)-1-ethyl-1H-pyrazole-5-carboxamide] | 20 | 45 | 55 | 30 | 60 | 70 | 40 | 55 | – | – | – | – | – | – | – | – | – | – | – | – | pest or weed control at 62 g/ha [1, 2]: 0%; plant injury at 62 g/ha (rice; [6]): 0%; pest or weed control at 62 g/ha (ducksalad; [9]): 0%; pest or weed control at 500 g/ha (ducksalad; [5]): 80%
C#CCOc1cccc(NC(=O)c2cc(C(C)(C)C)nn2CC)c1 [Compound 411] | – | – | – | – | – | – | – | – | 60 | 75 | 80 | 85 | 0 | 25 | 35 | 35 | 25 | 50 | 70 | 80 | –
CCOC(=O)c1ccc(F)c(NC(=O)C2CC(C(C)(C)C)=NN2CC)c1 (stereo not drawn) [Compound 267, ethyl 3-[[[3-(1,1-dimethylethyl)-1-ethyl-4,5-dihydro-1H-pyrazol-5-yl]carbonyl]amino]-4-fluorobenzoate] | – | – | – | – | – | – | – | – | – | – | – | – | – | – | – | – | – | – | – | – | pest or weed control at 500 g/ha (morningglory; [14]): 30%; pest or weed control at 2000 g/ha (morningglory; [15]): 45%; pest or weed control at 2000 g/ha (morningglory; [16]): 45%; pest or weed control at 500 g/ha (morningglory; pre-emergence, preemergence, visual injury, 0 to 100 scale (0 no effect, 100 complete control), read-out: Morningglory plant response rating): 20%; pest or weed control at 500 g/ha (barnyardgrass; [17]): 40%; pest or weed control at 2000 g/ha (barnyardgrass; [18]): 65%; pest or weed control at 2000 g/ha (barnyardgrass; [19]): 80%; pest or weed control at 500 g/ha (barnyardgrass; pre-emergence, preemergence, visual injury, 0 to 100 scale (0 no effect, 100 complete control), read-out: Barnyardgrass plant response rating): 70%
CCn1nc(C(C)(C)C)cc1C(=O)Nc1cc(C(=O)OC)ccn1 [Compound 151, methyl 2-[[[3-(1,1-dimethylethyl)-1-ethyl-1H-pyrazol-5-yl]carbonyl]amino]-4-pyridinecarboxylate] | – | – | – | – | – | – | – | – | – | – | – | – | – | – | – | – | – | – | – | – | pest or weed control at 500 g/ha (morningglory; [14]): 10%; pest or weed control at 2000 g/ha (morningglory; [15]): 20%; pest or weed control at 500 g/ha (morningglory; [16]): 0%; pest or weed control at 2000 g/ha (morningglory; [16]): 0%; pest or weed control at 500 g/ha (barnyardgrass; [17]): 10%; pest or weed control at 2000 g/ha (barnyardgrass; [18]): 10%; pest or weed control at 500 g/ha (barnyardgrass; [19]): 0%; pest or weed control at 2000 g/ha (barnyardgrass; [19]): 0%
CCNC(=O)c1cc(NC(=O)c2cn(C(C)(C)C)nc2CC)ccc1F [Compound 241, 1-(1,1-dimethylethyl)-3-ethyl-N-[3-[(ethylamino)carbonyl]-4-fluorophenyl]-1H-pyrazole-4-carboxamide] | 0 | 55 | 85 | 0 | 30 | 65 | 0 | 0 | – | – | – | – | – | – | – | – | – | – | – | – | pest or weed control at 62 g/ha [1, 2]: 0%; plant injury at 62 g/ha (rice; [6]): 0%; pest or weed control at 62 g/ha (ducksalad; [9]): 0%; pest or weed control at 500 g/ha (ducksalad; [5]): 15%
C#CCNC(=O)c1cccc(NC(=O)c2nn(C(C)(C)C)nc2CC)c1 [Compound 380] | – | – | – | – | – | – | – | – | 80 | 85 | 85 | 90 | 45 | 65 | 70 | 75 | 25 | 50 | 75 | 85 | –
C=CCOc1cccc(NC(=O)c2cc(C(C)(C)C)nn2CC)c1 [Compound 412] | – | – | – | – | – | – | – | – | 70 | 75 | 80 | 95 | 15 | 20 | 20 | 50 | 0 | 30 | 60 | 90 | –
CCc1nn(C(C)C)nc1C(=O)Nc1cccc(C(=O)N(C)C)c1 [Compound 358, N-[3-[(dimethylamino)carbonyl)phenyl]-5-ethyl-2-(1-methylethyl)-2H-1,2,3-triazole-4-carboxamide] | 85 | 85 | 85 | 65 | 70 | 85 | 80 | 90 | – | – | – | – | – | – | – | – | – | – | – | – | pest or weed control at 62 g/ha ([1]; 62 g ai/ha, scale 0 to 100, read-out: Sedge, Umbrella plant response rating): 15%; plant injury at 62 g/ha (rice; 62 g ai/ha, scale 0 to 100, read-out: Rice plant response rating): 20%; pest or weed control at 62 g/ha (ducksalad; 62 g ai/ha, scale 0 to 100, read-out: Ducksalad plant response rating): 0%; pest or weed control at 500 g/ha (ducksalad; [5]): 95%
CCn1nc(C(C)(C)C)cc1C(=O)Nc1cccc(C(=O)OC)n1 [Compound 143, methyl 6-[[[3-(1,1-dimethylethyl)-1-ethyl-1H-pyrazol-5-yl]carbonyl]amino]-2-pyridinecarboxylate] | – | – | – | – | – | – | – | – | – | – | – | – | – | – | – | – | – | – | – | – | pest or weed control at 500 g/ha (morningglory; [14]): 10%; pest or weed control at 2000 g/ha (morningglory; [15]): 25%; pest or weed control at 500 g/ha (morningglory; [16]): 0%; pest or weed control at 2000 g/ha (morningglory; [16]): 0%; pest or weed control at 500 g/ha (barnyardgrass; [17]): 10%; pest or weed control at 2000 g/ha (barnyardgrass; [18]): 25%; pest or weed control at 500 g/ha (barnyardgrass; [19]): 0%; pest or weed control at 2000 g/ha (barnyardgrass; [19]): 0%
CCOC(=O)c1ccc(F)c(NC(=O)c2cc(C3(C)CC3)nn2CC)c1 [Compound 296] | – | – | – | – | – | – | – | – | 75 | 75 | 75 | 85 | 20 | 20 | 40 | 60 | 0 | 0 | 40 | 70 | –

Source: patent publication US20060069132A1, “Azolecarboxamide herbicides” (priority 2004, published 2006)
